Test results published in US7199162B1, “Use of treosulfan for patient conditioning before bone marrow or blood stem cell transplantation” (Medac Gesellschaft fur Klinische Spezialpraparate mbH, priority 1999, dated 2007).

Tests used:
[1] = water solubility; format: physicochemical
[2] = test system: donor-type chimerism in the recipient; assay: H-2-compatible allogenic bone-marrow transplantation trial (C.B10→B6); format: in vivo, mice; conditions: substance alone, treosulfan in fractionated doses
Protocol: Treosulfan administered in fractionated doses was also evaluated in an H-2-compatible allogenic bone-marrow transplantation trial (C.B10→B6). In this trial, an immunological reaction resulting in rejection of the transplant must be prevented by conditioning with e.g. treosulfan, before growth of the transplant is possible.

[3] = pharmacokinetic properties after intravenous administration
[4] = test system: haematopoietic stem cells in the host bone marrow; assay: cobblestone area forming cell assay (CAFC) on host bone marrow 24 hours after administration, murine bone-marrow transplantation model; format: in vivo; conditions: recipient mice (BG-Gpi-1b), 3×2500 mg/kg daily fractionation, CAFC 24 hours after administration
Protocol: The recipient mice (BG-Gpi-1^b) were treated with 3×2500 mg/kg or 7500 mg/kg (corresponding to 22.5 g/m^2) treosulfan or 50 mg/kg busulfan. 24 hours after administration the elimination of the different haematopoietic stem cells in the host bone marrow was ascertained using the in vitro cobblestone area forming cell assays (CAFC; cf. Ploemacher et al., Blood 78 (1991) 2527–2533).

[5] = non-haematological toxicity profile; conditions: general statement, in contrast to busulfan

Row | SMILES | water-solubility [1] | induction of donor-type chimerism / conditioning before allogenic bone-marrow transplantation [2] | pharmacokinetic properties [3] | elimination of both the primitive and the "committed" progenitor cells [4] | non-haematological toxicity (liver, kidney, CNS, lung) [5]
1 | CS(=O)(=O)OCCCCOS(C)(=O)=O [busulfan] | low solubility | unable to bring about effective conditioning |  |  | 
2 | CS(=O)(=O)OC[C@H](O)[C@@H](O)COS(C)(=O)=O [treosulfan[…]] | consistent high water-solubility | almost complete and stable donor-type chimerism | reliable and linear pharmacokinetic properties | 3 to 5 powers of ten | no significant liver, kidney, CNS or lung toxicity
